Tests used:
[1] = HPLC RCP of 99mTc-labelled depreotide with hydrophilic thioether additives; type: physicochemical; details: for 3.5 hr RCP / 6.5 hr RCP / Initial RCP: 99mTc-depreotide kit, additive 4 mg in 100 μL, heated
Method: [drawing 16] These compounds and L-methionine were tested for their ability to stabilize ^99mTc-labelled depreotide. Each hydrophilic thioether was dissolved in water made up at 40 mg/mL and adjusted to pH 7 with HCl or NaOH. Each hydrophilic thioether (4 mg in 100 μL) was added to a formulated kit vial containing the peptide (“control” formulation in Table 1). To the control vials were added 100 μL water.

[2] = HPLC RCP of 99mTc-labelled glycoprotein IIb/IIIa receptor-binding peptide with L-methionine; type: physicochemical
Method: L-methionine was tested for its ability to stabilize a ^99mTc-labelled glycoprotein IIb/IIIa receptor-binding peptide having the structure.
Lyophilized kit vials were prepared containing the peptide (50 μg), sodium glucoheptonate dihydrate (10 mg), stannous chloride dihydrate (50 μg), and edetate disodium dihydrate (100 μg). The formulation was adjusted to pH 7.4 prior to lyophilization.
The lyophilized kits were radiolabelled with ^99mTc in the presence and absence of L-methionine. To the Met preparation was added 4 mg methionine (in 100 μL saline) and 100 μL ethanol. To the control preparation was added 100 μL ethanol and 100 μL saline to account for the additional saline or ethanol added with the L-methionine. Both vials were then reconstituted with 1.0 mL technetium ^99mTc sodium pertechnetate (Technelite®) containing approximately 50 mCi ^99mTc and allowed to incubate for 30 minutes at room temperature.

[3] = HPLC RCP of 99mTc-labelled benzodiazepinedione derivative kits with L-methionine; type: physicochemical; details: formulated kits
Method: L-methionine was tested for its ability to stabilize a ^99mTc-labelled glycoprotein IIb/IIIa receptor-binding benzodiazepinedione derivative 1-[(carboxyglycyl-glycyl-glycyl-cysteinamide)methyl]-4-(2-carboxyethyl)-7-[(4-amidinophenyl)methyl]-3,4-dihydro-1H-1,4-benzodiazepine-2,5-dione trifluoroacetate, having the structure.
All formulations were adjusted to pH 7.4 prior to lyophilization.
(§1) The lyophilized kits were radiolabelled with ^99mTc by reconstitution with 1.0 mL technetium ^99mTc sodium pertechnetate (Technelite®) containing approximately 50 mCi ^99mTc and heating in a boiling water bath for 10 minutes.

[4] = HPLC RCP of 99mTc-labelled monoamine, diamide, single thiol peptide chelator with L-methionine; type: physicochemical
Method: L-methionine was tested for its ability to stabilize a ^99mTc-labelled monoamine, diamide, single thiol peptide chelator having the structure.
Lyophilized kit “placebo” vials were prepared containing sodium glucoheptonate dihydrate, edetate disodium dihydrate, and stannous chloride dihydrate at the concentrations set forth in Table 1 (control formulation).
The peptide chelator was radiolabelled with ^99mTc in the presence and absence of L-methionine. The peptide chelator was dissolved in water at a concentration of 1 mg/mL, and 50 μg (50 μL) of the peptide was added to each of three placebo vials. Ethanol and L-methionine were added to the control and methionine preparations as described in Example 5. In addition, 100 μL phosphate buffered saline (PBS) was added to each preparation. The vials were reconstituted with 0.9-1.0 mL ^99mTc sodium pertechnetate (Technelite®) containing approximately 50 mCi ^99mTc, and heated in a boiling water bath for ten minutes.

[5] = HPLC RCP of 99mTc-labelled depreotide kits with L-methionine after accelerated temperature (40° C.) kit storage; type: physicochemical; details: lyophilized kits stored at 40° C. prior to radiolabelling
Method: Lyophilized kits were prepared containing depreotide, L-methionine (Met), and other components as described in Table 5. All formulations were adjusted to pH 7.4 prior to lyophilization. The kits were stored for one week at 40° C. Some kits were also stored at −10° C. as controls.
The lyophilized kits were radiolabelled with ^99mTc by reconstitution with 1.0 mL technetium ^99mTc sodium pertechnetate (Technelite®) containing approximately 50 mCi ^99mTc and incubation in a boiling water bath (10 min).

[6] = HPLC RCP of 99mTc-labelled depreotide kits with L-methionine; details: formulated kits stored under normal conditions (≦−10° C.)
Method: Lyophilized kit vials were prepared containing depreotide, L-methionine (Met), and other components as described in Table 3. All formulations were adjusted to pH 7.4 prior to lyophilization.
as §1, with “minutes. Some of the formulations were also radiolabelled in a room temperature preparation (allowed to stand at room temperature 30 minutes following reconstitution).” for “minutes.”

[7] = HPLC RCP of 99mTc-labelled bisamine bisthiol non-peptide chelator with L-methionine; type: physicochemical
Method: L-methionine was tested for its ability to stabilize a ^99mTc-labelled non-peptide chelator (4-(butanoic acid)-2,2,9,9 tetramethyl-4,7-diaza-1,10-decanedithiol) having the structure.
The non-peptide chelator was radiolabelled with ^99mTc in the presence and absence of L-methionine using the placebo vial heated preparation procedure as described in Example 6.

[8] = Radiochemical purity (RCP) by reversed phase HPLC of 99mTc-labelled depreotide kits with gentisic acid; type: physicochemical; details: included in formulated kits
Method: Lyophilized kit vials were prepared containing depreotide, GA, and other components as described in Table 1. Formulations were adjusted to pH 7.4 or 8.5 (as noted) prior to lyophilization.

Row | Compound | Effect on radiolabelling yield and stability of 99mTc-labelled peptide (depreotide) [1] | 3.5 hr RCP [1] | 6.5 hr RCP [1] | Initial RCP [1] | also measured
1 | CCSCCN [2-(Ethylthio)ethylamine] | increase | 94.2% | 93.3% | 92.8% | –
2 | CSCCC=O [3-(methylthio)propionaldehyde, reference compound] | no effect | – | – | – | –
3 | CSCC(O)CO (stereo not drawn) [3-Methylthio-1,2-propanediol, 3-methylthio-1,2-propanediol] | increase | 84% | 80.9% | 89.1% | –
4 | CSCC[C@H](N)C(=O)O [L-methionine] | – | 90.4% | 89.3% | 95% | Effect on radiolabelling yield and stability of the 99mTc-peptide [2]: increases; HPLC RCP (%) 0.5 hr ([2]; 99mTc-GPIIb/IIIa peptide, 4 mg methionine or none, room temperature 30 min, 0.5 hr): 96.7%; HPLC RCP (%) 3.5 hr ([2]; 99mTc-GPIIb/IIIa peptide, 4 mg methionine or none, room temperature 30 min, 3.5 hr): 96.9%; HPLC RCP (%) 6.5 hr ([2]; 99mTc-GPIIb/IIIa peptide, 4 mg methionine or none, room temperature 30 min, 6.5 hr): 96.2%; Effect on radiolabelling yield and stability of 99mTc-labelled benzodiazepinedione derivative [3]: increases; Effect on radiolabelling yield and stability of 99mTc-labelled peptide chelator [4]: increases; HPLC RCP (%) 0.5 hr ([4]; 99mTc-peptide chelator, 4 mg L-methionine or none, heated, 0.5 hr): 98.4%; HPLC RCP (%) 3 hr ([4]; 99mTc-peptide chelator, 4 mg L-methionine or none, heated, 3 hr): 97.2%; HPLC RCP (%) 6 hr ([4]; 99mTc-peptide chelator, 4 mg L-methionine or none, heated, 6 hr): 95.5%; HPLC RCP (%) 9 hr ([4]; 99mTc-peptide chelator, 4 mg L-methionine or none, heated, 9 hr): 92.8%; Stabilization of 99mTc-depreotide [5]: does not stabilize; Effect on radiolabelling yield and stability of 99mTc-depreotide [6]: increases; Effect on radiolabelling yield and stability of 99mTc-labelled non-peptide chelator [7]: increases; HPLC RCP (%) 0.5 hr ([7]; 99mTc-non-peptide chelator, 4 mg methionine or none, heated, 0.5 hr): 66.7%; HPLC RCP (%) 3 hr ([7]; 99mTc-non-peptide chelator, 4 mg methionine or none, heated, 3 hr): 70.0%; HPLC RCP (%) 6 hr ([7]; 99mTc-non-peptide chelator, 4 mg methionine or none, heated, 6 hr): 70.8%; HPLC RCP (%) 9 hr ([7]; 99mTc-non-peptide chelator, 4 mg methionine or none, heated, 9 hr): 70.4%
5 | C[S+]([O-])CC[C@H](N)C(=O)O (stereo partly drawn) [Methionine sulfoxide, reference compound] | no effect | – | – | – | –
6 | CSCC[C@H](N)CO [Methioninol, methioninol] | increase | 93.9% | 90.7% | 94.1% | –
7 | O=C(O)c1cc(O)ccc1O [gentisic acid, Gentisic acid] | – | – | – | – | Effect on radiolabelling yield and stability of 99mTc-depreotide [8]: decreases
8 | CS(=O)(=O)CC[C@H](N)C(=O)O [methionine sulfone, reference compound] | no effect | – | – | – | –

— patent US7351398B2, “Stabilization of radiopharmaceutical compositions using hydrophilic thioethers” (CIS bio international, priority 2000, dated 2008)
